19 molecules from patent US11285156B2, “Substituted piperazines as KRAS G12C inhibitors” (Amgen Inc., priority 2018, dated 2022) can be followed below.

Like-named read-outs stand apart in the source and are kept apart here. A value given as a limit tells only on which side of the number the result lay.

The test system of assay [1] is Phosphorylation of ERK1/2 in A549 cells. The assay can be described thus: Phospho-ERK1/2 MSD assay in A549 cells. In kind it is cell-based. The note with it: Homo sapiens, A549, 2 h, read-out: p-ERK IC50 (2 h, A549; μM). How it is done: (§1) Phospho-ERK1/2 MSD Assay:
(§2) MIA PaCa-2 (ATCC® CRL-1420™) and A549 (ATCC® CCL-185™) cells were cultured in RPMI 1640 Medium (ThermoFisher Scientific 11875093) containing 10% fetal bovine serum (ThermoFisher Scientific 16000044) and 1× penicillin-streptomycin-glutamine (ThermoFisher Scientific 10378016). Sixteen hours prior to compound treatment, MIA PaCa-2 or A549 cells were seeded in 96-well cell culture plates at a density of 25,000 cells/well and incubated at 37° C., 5% CO2. A compound dose-response titration was diluted in growth media, added to appropriate wells of a cell culture plate, and then incubated at 37° C., 5% CO2 for 2 or 4 hours (see Table 15). Following compound treatment, cells were stimulated with 10 ng/mL EGF (Roche 11376454001) for 10 min, washed with ice-cold Dulbecco's phosphate-buffered saline, no Ca2+ or Mg2+ (ThermoFisher Scientific 14190144), and then lysed in RIPA buffer (50 mM Tris-HCl pH 7.5, 1% Igepal, 0.5% sodium deoxycholate, 150 mM NaCl. and 0.5% sodium dodecyl sulfate) containing protease inhibitors (Roche 4693132001) and phosphatase inhibitors (Roche 4906837001). Phosphorylation of ERK1/2 in compound-treated lysates was assayed using Phospho-ERK1/2 Whole Cell Lysate kits (Meso Scale Discovery K151DWD) according to the manufacturer's protocol.

Assay [2] concerns Phosphorylation of ERK1/2 in MIA PaCa-2 cells. The assay can be described thus: Phospho-ERK1/2 MSD assay in MIA PaCa-2 cells. In kind it is cell-based. The note with it: read-out: p-ERK IC50 (2 h, MiaPaCa-2; μM), 2 h compound treatment, MIA PaCa-2 cells, EGF stimulated. The protocol:
as §1
as §2, with “Sixteen” for “MIA PaCa-2 (ATCC® CRL-1420™) and A549 (ATCC® CCL-185™) cells were cultured in RPMI 1640 Medium (ThermoFisher Scientific 11875093) containing 10% fetal bovine serum (ThermoFisher Scientific 16000044) and 1× penicillin-streptomycin-glutamine (ThermoFisher Scientific 10378016). Sixteen”

In assay [3] the target is GDP-bound KRAS protein (aa 1-169), containing both G12C and C118A amino acid substitutions (Homo sapiens (Human), UniProt P01116, C118A/G12C). The assay can be described thus: Coupled nucleotide exchange assay (SOS-mediated nucleotide exchange, AlphaScreen). The assay is classed as biochemical. The note with it: 5 min compound pre-incubation; for IC50: read-out: Coupled exchange IC50 (5 min; μM).
Procedure: Coupled Nucleotide Exchange Assay:
Following compound pre-incubation, purified SOS protein (aa 564-1049) and GTP (Roche 10106399001) were added to the assay wells and incubated for an additional 30 min (for 5 min compound pre-incubation) or 1 hour (for 2 hour compound pre-incubation). […] The assay plates were then read on a PerkinElmer EnVision Multilabel Reader, using AlphaScreen® technology, and data were analyzed using a 4-parameter logistic model to calculate IC50 values.

Setting [4] is: 2 h compound treatment, A549 cells, EGF stimulated.

GDP-bound KRAS protein (aa 1-169), containing both G12C and C118A amino acid substitutions, sequence (P01116 other isoform, or with tags, fused parts or gaps G12C/C118A): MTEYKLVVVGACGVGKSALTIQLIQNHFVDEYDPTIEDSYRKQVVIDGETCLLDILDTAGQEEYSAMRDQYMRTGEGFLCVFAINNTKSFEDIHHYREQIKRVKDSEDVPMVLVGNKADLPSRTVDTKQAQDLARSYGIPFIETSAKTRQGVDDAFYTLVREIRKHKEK

For `C=CC(=O)N1C[C@H](C)N(c2nc(=O)n(-c3c(C)ccnc3C(C)C)c3nc(-c4cscc4C)c(Cl)cc23)C[C@H]1C` (atropisomer, axis not shown; (M)) [Example 92-5, (M)-6-Chloro-4-[(2S,5R)-2,5-dimethyl-4-prop-2-enoyl-piperazin-1-yl]-1-(2-isopropyl-4-methyl-3-pyridyl)-7-(4-methyl-3-thienyl)pyrido[2,3-d]pyrimidin-2-one], the IC50 in assay [1] (setting [4]) is above 7.5 µM; in assay [2] (Homo sapiens, MIA PaCa-2, 2 h), 0.119 µM.
The matching figures for `C=CC(=O)N1C[C@H](C)N(c2nc(=O)n(-c3c(C)ccnc3C(C)C)c3nc(C4=CCCCC4)c(Cl)cc23)C[C@H]1C` (atropisomer, axis not shown; (M)) [Example 92-6, (M)-6-Chloro-7-(cyclohexen-1-yl)-4-[(2S,5R)-2,5-dimethyl-4-prop-2-enoyl-piperazin-1-yl]-1-(2-isopropyl-4-methyl-3-pyridyl)pyrido [2,3-d]pyrimidin-2-one]: above 7.5 µM and 0.237 µM.
With `C=CC(=O)N1[C@H](C)CN(c2nc(=O)n(-c3c(C)cc(N)nc3C(C)C)c3nc(-c4c(N)cccc4F)c(F)cc23)C[C@@H]1C` (single isomer, unassigned) [Example 123-5], the IC50 in assay [3] was 7.53 µM; in assay [2], 10 µM.
The matching figures for `C=CC(=O)N1C[C@H](C)N(c2nc(=O)n3c4nc(c(Cl)cc24)-c2ccccc2C/C=C/Cc2cccc(C(C)C)c2-3)C[C@H]1C` (single isomer, unassigned) [Example 146-2-1]: 0.025 µM and 0.024 µM.
With `C=CC(=O)N1C[C@H](C)N(c2nc(=O)n(-c3c(N(C)C)ccnc3C(C)C)c3nc(-c4c(F)cccc4NC(=O)CC)c(Cl)cc23)C[C@H]1C` [Example 122-2, N-[2-[6-Chloro-1-[4-(dimethylamino)-2-isopropyl-3-pyridyl]-4-[(2S,5R)-2,5-dimethyl-4-prop-2-enoyl-piperazin-1-yl]-2-oxo-pyrido[2,3-d]pyrimidin-7-yl]-3-fluoro-phenyl]propanamide], the half-inhibitory concentration (IC50) in assay [3] amounted to 0.357 µM; in assay [2] (Homo sapiens, MIA PaCa-2, 2 h), 1.21 µM.
As for `C=CC(=O)N1C[C@H](C)N(c2nc(=O)n(-c3c(C(C)C)cnc(C)c3C)c3nc(-c4ccccc4F)c(Cl)cc23)C[C@H]1C` [Example 179, 4-((2S,5R)-4-Acryloyl-2,5-dimethylpiperazin-1-yl)-6-chloro-7-(2-fluorophenyl)-1-(5-isopropyl-2,3-dimethylpyridin-4-yl)pyrido[2,3-d]pyrimidin-2(1H)-one], in assay [1] (setting [4]), the half-inhibitory concentration (IC50) is above 7.5 µM.
As to `C=CC(=O)N1CCN(c2nc(=O)n(CC(C)(C)O)c3nc(-c4ccccc4F)c(Cl)cc23)CC1` [Example 180, 4-(4-Acryloylpiperazin-1-yl)-6-chloro-7-(2-fluorophenyl)-1-(2-hydroxy-2-methylpropyl)pyrido[2,3-d]pyrimidin-2(1H)-one], the “Coupled exchange IC50 (5 min; μM)” value in assay [3] was 85.1 µM. Moreover, the IC50 in assay [2] (Homo sapiens, MIA PaCa-2, 2 h) is 10 µM.
Turning to `C=CC(=O)N1C[C@H](C)N(c2nc(=O)n(-c3c(C(C)C)cc(N4CCC4)nc3C(C)C)c3nc(-c4ccccc4F)c(Cl)cc23)C[C@H]1C` [Example 182, 4-((2S,5R)-4-Acryloyl-2,5-dimethylpiperazin-1-yl)-1-(6-(azetidin-1-yl)-2,4-diisopropylpyridin-3-yl)-6-chloro-7-(2-fluorophenyl)pyrido[2,3-d]pyrimidin-2(1H)-one], the “Coupled exchange IC50 (5 min; μM)” value in assay [3] amounted to 8.794 µM.
Take `C=CC(=O)N1C[C@H](C)N(c2nc(=O)n(-c3c(C)cc(CN(C)C)cc3C(C)C)c3nc(-c4c(N)cccc4F)c(F)cc23)C[C@H]1C` [Example 184, 4-((2S,5R)-4-Acryloyl-2,5-dimethylpiperazin-1-yl)-7-(2-amino-6-fluorophenyl)-1-(4-((dimethylamino)methyl)-2-isopropyl-6-methylphenyl)-6-fluoropyrido[2,3-d]pyrimidin-2(1H)-one]: the IC50 in assay [3] was determined as 2.81 µM.
Same read-out and setting: as for `C=CC(=O)N1C[C@H](C)N(c2nc(=O)n(-c3c(C)nc(C)nc3C(C)C)c3nc(-c4ccccc4F)c(C)cc23)C[C@H]1C` [Example 195, 4-((2S,5R)-4-Acryloyl-2,5-dimethylpiperazin-1-yl)-7-(2-fluorophenyl)-1-(4-isopropyl-2,6-dimethylpyrimidin-5-yl)-6-methylpyrido[2,3-d]pyrimidin-2(1H)-one], the figure is 0.488 µM.
In the case of `C=CC(=O)N1[C@H](C)CN(c2nc(=O)n(-c3c(C(C)C)cnnc3C(C)C)c3nc(-c4ccccc4F)c(Cl)cc23)C[C@@H]1C` [Example 206-1, 4-(cis-4-Acryloyl-3,5-dimethylpiperazin-1-yl)-6-chloro-1-(3,5-diisopropylpyridazin-4-yl)-7-(2-fluorophenyl)pyrido[2,3-d]pyrimidin-2(1H)-one], the “Coupled exchange IC50 (5 min; μM)” value in assay [3] was 0.143 µM.
`C=CC(=O)N1C[C@H](C)N(c2nc(=O)n(-c3c(C)cc(S(C)(=O)=O)cc3C(C)C)c3nc(-c4ccccc4F)c(Cl)cc23)C[C@H]1C` [Example 215, 4-((2S,5R)-4-Acryloyl-2,5-dimethylpiperazin-1-yl)-6-chloro-7-(2-fluorophenyl)-1-(2-isopropyl-6-methyl-4-(methylsulfonyl)phenyl)pyrido[2,3-d]pyrimidin-2(1H)-one]: the half-inhibitory concentration (IC50) came out at 0.076 µM in assay [3] and 0.275 µM in assay [2] (Homo sapiens, MIA PaCa-2, 2 h).
Take `C=CC(=O)N1C[C@H](C)N(C2=NC(=O)CN(CC(C)(C)C)c3nc(-c4ccccc4F)c(Cl)cc32)C[C@H]1C` [Example 217, 5-((2S,5R)-4-Acryloyl-2,5-dimethylpiperazin-1-yl)-7-chloro-8-(2-fluorophenyl)-1-neopentyl-1,2-dihydro-3H-pyrido[2,3-e][1,4]diazepin-3-one]: the IC50 in assay [1] was above 7.5 µM.
Take `C=CC(=O)N1C[C@H](C)N(C2=NCC(=O)N(c3c(C)ccnc3C(C)C)c3nc(-c4ccccc4F)c(Cl)cc32)C[C@H]1C` [Example 219, 5-((2S,5R)-4-Acryloyl-2,5-dimethylpiperazin-1-yl)-7-chloro-8-(2-fluorophenyl)-1-(2-isopropyl-4-methylpyridin-3-yl)-1,3-dihydro-2H-pyrido[2,3-e][1,4]diazepin-2-one]: the IC50 in assay [3] is 250 µM.
On to `C=CC(=O)N1C[C@H](C)N(C2=NCC(=O)N(CC(C)(C)C)c3nc(-c4ccccc4F)c(Cl)cc32)C[C@H]1C` [Example 220, 5-((2S,5R)-4-Acryloyl-2,5-dimethylpiperazin-1-yl)-7-chloro-8-(2-fluorophenyl)-1-neopentyl-1,3-dihydro-2H-pyrido[2,3-e][1,4]diazepin-2-one], for which, in assay [3], the IC50 is 250 µM.
On to `C=CC(=O)N1CCN(c2c(C(N)=O)c(=O)n(-c3c(C)ccnc3C(C)C)c3nc(-c4ccccc4F)c(Cl)cc23)CC1` [Example 221, 4-(4-Acryloylpiperazin-1-yl)-6-chloro-7-(2-fluorophenyl)-1-(2-isopropyl-4-methylpyridin-3-yl)-2-oxo-1,2-dihydro-1,8-naphthyridine-3-carboxamide], for which the half-inhibitory concentration (IC50) in assay [3] amounted to 1.26 µM.
The same measure, in the same setting: the value for `C=CC(=O)N1[C@H](C)CN(c2nc(=O)n(-c3c(C)ccnc3C(C)C)c3nc(-c4ccccc4F)c(Cl)nc23)C[C@@H]1C` [Example 224, 4-((3R,5S)-4-Acryloyl-3,5-dimethylpiperazin-1-yl)-6-chloro-7-(2-fluorophenyl)-1-(2-isopropyl-4-methylpyridin-3-yl)pteridin-2(1H)-one] was 7.62 µM.
Consider `C=CC(=O)N1CCN(c2nc(=O)n(-c3c(C)ccnc3C(C)C)c3nc(-c4c(C)ccc5c4CC(=O)N5)c(Cl)cc23)[C@@H](C)C1` [Example 228, 4-((S)-4-Acryloyl-2-methylpiperazin-1-yl)-6-chloro-1-(2-isopropyl-4-methylpyridin-3-yl)-7-(5-methyl-2-oxoindolin-4-yl)pyrido[2,3-d]pyrimidin-2(1H)-one], for which, in assay [3], the “Coupled exchange IC50 (5 min; μM)” value stood at 0.769 µM.
Take `C=CC(=O)N1C[C@H](C)N(c2nc(=O)n(-c3c(C)cc([S+](C)[O-])cc3C(C)C)c3nc(-c4ccccc4F)c(Cl)cc23)C[C@@H]1C` (some centres unmarked) [compound 216]: the IC50 in assay [3] is 2.01 µM.
